According to PubChem BioAssay AID1963860 (Molecular Pharmacology Branch, DTP, NCI, 2024):

System: CN0375-F725-PDC KRAS spheroid viability
Assay: Anticancer human tumor CN0375-F725-PDC patient-derived colon carcinoma cell line growth inhibition [KRAS2]
Conditions: spheroids with HUVEC and MSC; for viability, T/C: stronger effect = lower value
In short: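 Combination screen of spheroid viability in tumor-cell co-cultures with endothelial (HUVEC) and mesenchymal stem cell stroma. Each agent was tested in half-log dilutions, topping at clinical Cmax or at 10 microM without a known Cmax.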

[1] = curve of first compound, second compound 0.1 µM
[2] = curve of first compound, second compound 0.316 µM
[3] = curve of first compound, second compound 1 µM
[4] = curve of first compound, second compound 3.16 µM
[5] = curve of first compound, second compound 10 µM
[6] = second compound 0.1 µM, first compound 0.0316 µM
[7] = second compound 0.1 µM, first compound 0.1 µM
[8] = second compound 0.1 µM, first compound 0.316 µM
[9] = second compound 0.1 µM, first compound 1 µM
[10] = second compound 0.1 µM, first compound 3.16 µM
[11] = second compound 0.1 µM, first compound 10 µM
[12] = second compound 0.316 µM, first compound 0.0316 µM
[13] = second compound 0.316 µM, first compound 0.1 µM
[14] = second compound 0.316 µM, first compound 0.316 µM
[15] = second compound 0.316 µM, first compound 1 µM
[16] = second compound 0.316 µM, first compound 3.16 µM
[17] = second compound 0.316 µM, first compound 10 µM
[18] = second compound 1 µM, first compound 0.0316 µM
[19] = second compound 1 µM, first compound 0.1 µM
[20] = second compound 1 µM, first compound 0.316 µM
[21] = second compound 1 µM, first compound 1 µM
[22] = second compound 1 µM, first compound 3.16 µM
[23] = second compound 1 µM, first compound 10 µM
[24] = second compound 3.16 µM, first compound 0.0316 µM
[25] = second compound 3.16 µM, first compound 0.1 µM
[26] = second compound 3.16 µM, first compound 0.316 µM
[27] = second compound 3.16 µM, first compound 1 µM
[28] = second compound 3.16 µM, first compound 3.16 µM
[29] = second compound 3.16 µM, first compound 10 µM
[30] = second compound 10 µM, first compound 0.0316 µM
[31] = second compound 10 µM, first compound 0.1 µM
[32] = second compound 10 µM, first compound 0.316 µM
[33] = second compound 10 µM, first compound 1 µM
[34] = second compound 10 µM, first compound 3.16 µM
[35] = second compound 10 µM, first compound 10 µM
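Further: spheroids exposed to agents for 7 days.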

Structure (SMILES)	IC50 [1] [nM]	IC50 [2] [nM]	IC50 [3] [nM]	IC50 [4] [nM]	IC50 [5] [nM]	viability, T/C [6] [%]	viability, T/C [7] [%]	viability, T/C [8] [%]	viability, T/C [9] [%]	viability, T/C [10] [%]	viability, T/C [11] [%]	viability, T/C [12] [%]	viability, T/C [13] [%]	viability, T/C [14] [%]	viability, T/C [15] [%]	viability, T/C [16] [%]	viability, T/C [17] [%]	viability, T/C [18] [%]	viability, T/C [19] [%]	viability, T/C [20] [%]	also measured
CNCc1ccccc1-c1csc(C(C)Nc2nc(C)nc3cc(OC)c(OC)cc23)c1 (stereo not given)	–	–	–	–	–	–	–	–	–	–	–	–	–	–	–	–	–	–	–	–	viability, T/C (compound 0.1 µM): 98.1% [middle of 17 runs]; viability, T/C (compound 0.316 µM): 92.8% [middle of 17 runs]; viability, T/C (compound 10 µM): 0.33% [middle of 15 runs]; IC50 (compound alone, run of 08/26/2021): 988 nM [middle of 5 runs]; IC50 (compound alone, run of 09/02/2021): 1.33 µM [middle of 6 runs]
Cn1nccc1Nc1nccc(-c2cc3c(s2)C(C)(C)N(CCN2CCOCC2)C3=O)n1 + CC1OCC2(CCN(c3cnc(Sc4ccnc(N)c4Cl)c(N)n3)CC2)C1N	2330	1070	661	341	209	98.5	83.1	69.8	58.7	47.5	36.7	88.8	78.1	60.4	51.8	42.1	36.3	81.2	81.9	60.1	viability, T/C [21]: 45.3%; viability, T/C [22]: 37.1%; viability, T/C [23]: 35.9%; viability, T/C [24]: 74.7%; viability, T/C [25]: 65.5%; viability, T/C [26]: 52.1%; viability, T/C [27]: 36.4%; viability, T/C [28]: 33.7%; viability, T/C [29]: 31.5%; viability, T/C [30]: 62.7%; viability, T/C [31]: 63.3%; viability, T/C [32]: 42.8%; viability, T/C [33]: 31.9%; viability, T/C [34]: 28.9%; viability, T/C [35]: 28.3%
Cn1nccc1Nc1nccc(-c2cc3c(s2)C(C)(C)N(CCN2CCOCC2)C3=O)n1 + COc1cc2nc(C)nc(NC(C)c3cc(N)cc(C(F)(F)F)c3)c2cc1OC1CCOC1	2530	2200	1570	487	< 31.6	96.5	85.8	68.7	59.9	47.2	41.6	88.8	83.2	67.2	59.9	45.2	39.6	92.9	80.5	63.8	viability, T/C [21]: 53.2%; viability, T/C [22]: 46.1%; viability, T/C [23]: 37.6%; viability, T/C [24]: 75.6%; viability, T/C [25]: 68.8%; viability, T/C [26]: 53.8%; viability, T/C [27]: 41.6%; viability, T/C [28]: 35.1%; viability, T/C [29]: 28.2%; viability, T/C [30]: 11.9%; viability, T/C [31]: 13.1%; viability, T/C [32]: 10.9%; viability, T/C [33]: 8.43%; viability, T/C [34]: 4.35%; viability, T/C [35]: 1.87%
